Molecular target: T1, hFASN enzyme (full length) (Homo sapiens, UniProt P49327)
T1 construct: 10 μL hFASN enzyme (full length, 300 ng, purified in house); made in house
Assay: Fatty Acid Synthase (FASN) inhibition scintillation proximity assay
Format: biochemical
Details: for inhibition at 10 µM: read-out: Human FASN % inhibition @ 10 μM, 10 μM test compound; for IC50: read-out: Human FASN pIC50 (converted)
Procedure, shortened: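 Proximity read-out: hydrophobic ^3H-palmitate formed from ^3H-acetyl-CoA and malonyl-CoA binds streptavidin imaging beads, imaged at 610±20 nm at least 24 h after stopping. Enzyme was in-house purified full-length hFASN, 300 ng, in pH 7.5 phosphate/DTT buffer; compound series 30 μM down to 0.01 μM, normalized to controls, 4-parameter fit.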

T1 sequence (P49327 whole entry): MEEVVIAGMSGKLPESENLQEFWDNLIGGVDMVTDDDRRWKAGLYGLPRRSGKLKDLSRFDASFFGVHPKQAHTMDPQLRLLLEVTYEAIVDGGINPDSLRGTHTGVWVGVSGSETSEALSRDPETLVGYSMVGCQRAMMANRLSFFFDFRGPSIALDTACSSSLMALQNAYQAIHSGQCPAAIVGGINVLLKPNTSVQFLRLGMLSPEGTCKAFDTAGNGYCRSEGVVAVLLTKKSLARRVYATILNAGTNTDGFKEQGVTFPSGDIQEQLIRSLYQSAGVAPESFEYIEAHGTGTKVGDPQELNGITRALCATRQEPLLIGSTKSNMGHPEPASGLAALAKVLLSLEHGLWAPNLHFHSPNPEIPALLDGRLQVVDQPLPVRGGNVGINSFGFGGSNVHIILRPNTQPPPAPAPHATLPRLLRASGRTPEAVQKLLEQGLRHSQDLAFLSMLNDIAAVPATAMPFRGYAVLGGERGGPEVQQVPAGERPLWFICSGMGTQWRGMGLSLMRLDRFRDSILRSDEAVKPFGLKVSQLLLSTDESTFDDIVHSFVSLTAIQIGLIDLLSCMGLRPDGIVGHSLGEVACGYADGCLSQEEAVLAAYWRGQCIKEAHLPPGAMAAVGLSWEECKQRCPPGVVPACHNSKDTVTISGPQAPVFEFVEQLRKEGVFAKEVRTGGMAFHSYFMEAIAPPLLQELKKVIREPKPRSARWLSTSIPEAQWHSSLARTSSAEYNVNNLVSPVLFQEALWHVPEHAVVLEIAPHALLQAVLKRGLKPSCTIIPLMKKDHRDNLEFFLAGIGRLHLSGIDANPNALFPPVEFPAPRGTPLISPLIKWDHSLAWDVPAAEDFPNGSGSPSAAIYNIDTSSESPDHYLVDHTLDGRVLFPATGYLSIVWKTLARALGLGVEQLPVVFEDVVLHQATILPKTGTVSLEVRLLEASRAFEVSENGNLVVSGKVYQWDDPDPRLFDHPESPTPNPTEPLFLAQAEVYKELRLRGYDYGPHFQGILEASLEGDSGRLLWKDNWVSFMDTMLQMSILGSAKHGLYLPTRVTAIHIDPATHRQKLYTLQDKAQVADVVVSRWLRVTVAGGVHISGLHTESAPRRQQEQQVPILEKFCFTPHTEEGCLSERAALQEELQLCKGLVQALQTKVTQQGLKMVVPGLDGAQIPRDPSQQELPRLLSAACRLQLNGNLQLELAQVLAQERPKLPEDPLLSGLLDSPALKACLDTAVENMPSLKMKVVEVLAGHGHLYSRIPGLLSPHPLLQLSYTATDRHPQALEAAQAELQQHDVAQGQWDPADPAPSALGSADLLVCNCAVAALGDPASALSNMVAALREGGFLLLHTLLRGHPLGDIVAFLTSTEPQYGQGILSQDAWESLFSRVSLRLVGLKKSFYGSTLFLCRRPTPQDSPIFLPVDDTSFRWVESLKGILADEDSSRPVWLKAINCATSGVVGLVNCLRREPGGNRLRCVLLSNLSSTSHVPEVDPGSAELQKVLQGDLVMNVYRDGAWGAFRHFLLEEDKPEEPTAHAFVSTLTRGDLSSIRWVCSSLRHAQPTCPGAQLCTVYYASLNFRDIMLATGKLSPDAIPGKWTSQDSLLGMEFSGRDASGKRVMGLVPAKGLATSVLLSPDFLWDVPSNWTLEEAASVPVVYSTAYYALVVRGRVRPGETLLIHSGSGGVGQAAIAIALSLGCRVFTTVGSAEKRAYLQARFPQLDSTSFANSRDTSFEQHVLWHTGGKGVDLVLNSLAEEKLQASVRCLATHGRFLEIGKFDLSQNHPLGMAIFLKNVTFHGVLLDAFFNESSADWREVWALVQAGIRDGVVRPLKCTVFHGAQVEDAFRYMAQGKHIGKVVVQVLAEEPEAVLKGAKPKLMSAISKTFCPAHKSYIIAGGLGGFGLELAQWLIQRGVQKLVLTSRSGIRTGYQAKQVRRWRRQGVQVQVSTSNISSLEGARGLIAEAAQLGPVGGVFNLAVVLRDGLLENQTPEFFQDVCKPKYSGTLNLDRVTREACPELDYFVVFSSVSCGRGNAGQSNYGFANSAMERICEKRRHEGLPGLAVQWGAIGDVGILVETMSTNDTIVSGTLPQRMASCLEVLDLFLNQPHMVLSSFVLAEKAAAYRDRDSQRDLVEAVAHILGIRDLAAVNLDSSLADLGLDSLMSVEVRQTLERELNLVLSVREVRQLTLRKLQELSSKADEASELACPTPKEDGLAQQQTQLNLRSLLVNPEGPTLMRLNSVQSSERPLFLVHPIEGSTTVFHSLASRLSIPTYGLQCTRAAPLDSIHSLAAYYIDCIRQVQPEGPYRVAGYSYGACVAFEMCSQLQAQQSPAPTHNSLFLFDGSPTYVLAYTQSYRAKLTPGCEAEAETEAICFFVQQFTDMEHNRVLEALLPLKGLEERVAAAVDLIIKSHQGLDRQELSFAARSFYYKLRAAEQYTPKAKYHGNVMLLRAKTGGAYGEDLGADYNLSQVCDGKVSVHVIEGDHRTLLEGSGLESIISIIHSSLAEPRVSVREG

| SMILES | inhibition at 10 µM [%] | IC50 [nM] |
| --- | --- | --- |
| Cn1cc(-c2ccc(-c3ccc(C4=NC5(CCOC5)C(=O)N4CC4CN(C(=O)C5CC5)C4)cc3)cc2)cn1 (centres unmarked) [compound 710, 3-{[1-(Cyclopropylcarbonyl)azetidin-3-yl]methyl}-2-[4′-(1-methyl-1H-pyrazol-4-yl)biphenyl-4-yl]-7-oxa-1,3-diazaspiro[4.4]non-1-en-4-one] | 66 | 2820 |
| Cn1cc(-c2ccc(-c3ccc(C4=NC5(CCOCC5)C(=O)N4CC4CN(C(=O)c5nccs5)C4)cc3)cc2)cn1 [compound 911, 2-(4′-(1-methyl-1H-pyrazol-4-yl)-[1,1′-biphenyl]-4-yl)-3-((1-(thiazole-2-carbonyl)azetidin-3-yl)methyl)-8-oxa-1,3-diazaspiro[4.5]dec-1-en-4-one] | 7 | > 10000 |
| Cc1ccc(-c2ccc(-c3ccc(C4=NC5(CC5)C(=O)N4C[C@H]4CCCN(C(=O)C5CC5)C4)cc3)cc2)cc1 [compound 812, (S)-6-((1-(cyclopropanecarbonyl)piperidin-3-yl)methyl)-5-(4″-methyl[1,1′:4′,1″- terphenyl]-4-yl)-4,6-diazaspiro[2.4]hept-4-en-7-one] | 5 | > 10000 |
| CC(C)N1CCC2(CC1)N=C(c1ccc(-c3ccc4occc4c3)cc1)N(C[C@@H]1CCN(C(=O)C3CC3)C1)C2=O [compound 167, 2-[4-(1-Benzofuran-5-yl)phenyl]-3-{[(3R)-1-(cyclopropylcarbonyl)pyrrolidin-3-yl]methyl}-8-(1-methylethyl)-1,3,8-triazaspiro[4.5]dec-1-en-4-one] | 96.4 | 525 |
| Cc1cccc(-c2ccc(C3=NC4(CC4)C(=O)N3CC3CCN(C(=O)C4CC4)CC3)cc2)c1 [compound 111, 6-{[1-(Cyclopropylcarbonyl)piperidin-4-yl]methyl}-5-(3′-methylbiphenyl-4-yl)-4,6-diazaspiro[2.4]hept-4-en-7-one] | 62.2 | 4370 |
| O=C([C@@H]1CCCO1)N1CC[C@@H](CN2C(=O)C3(CCCC3)N=C2c2ccc(-c3ccc4occc4c3)cc2)C1 [compound 190, 2-(4-(Benzofuran-5-yl)phenyl)-3-(((R)-1-((S)-tetrahydro-furan-2-carbonyl)pyrrolidin-3-yl)methyl)-1,3-diazaspiro[4.4]non-1-en-4-one] | 105 | 295 |
| COC(=O)N1CC[C@@H](CN2C(=O)C3(CCOC3)N=C2c2ccc(-c3ccc(-c4cnn(C)c4)cc3)cc2)C1 (stereo partly drawn) [compound 894, (3S)-methyl 3-((2-(4′-(1-methyl-1H-pyrazol-4-yl)-[1,1′-biphenyl]-4-yl)-4-oxo-7-oxa-1,3-diazaspiro[4.4]non-1-en-3-yl)methyl)pyrrolidin-1-carboxylate] | 20 | > 10000 |
| CC(C)N1CCC2(CC1)N=C(c1ccc(-c3ccc4cnccc4c3)cc1)N(C[C@@H]1CCN(C(=O)C3CC3)C1)C2=O [compound 163] | 110 | 229 |
| COC(=O)N1CC2(C1)N=C(c1ccc(-c3ccc(-c4cnn(C)c4)cc3)cc1)N(C[C@@H]1CCN(C(=O)C(C)O)C1)C2=O (stereo partly drawn) [compound 726, Methyl 7-{[(3R)-1-(2-hydroxypropanoyl)pyrrolidin-3-yl]methyl}-6-[4′-(1-methyl-1H-pyrazol-4-yl)biphenyl-4-yl]-8-oxo-2,5,7-triazaspiro[3.4]oct-5-ene-2-carboxylate] | 73 | 1950 |
| CC(C)n1cc(-c2ccc(-c3ccc(C4=NC5(CC5)C(=O)N4CC4CN(C(=O)C5CC5)C4)cc3)cn2)cn1 [compound 516, 6-{[1-(Cyclopropylcarbonyl)azetidin-3-yl]methyl}-5-(4-{6-[1-(1-methylethyl)-1H-pyrazol-4-yl]pyridin-3-yl}phenyl)-4,6-diazaspiro[2.4]hept-4-en-7-one] | 83 | 1170 |
| CC(O)C(=O)N1CC[C@@H](CN2C(=O)C3(CCOC3)N=C2c2ccc(-c3ccc4c(cnn4C)c3)cc2)C1 (stereo partly drawn) [compound 691, 3-{[(3R)-1-(2-Hydroxypropanoyl)pyrrolidin-3-yl]methyl}-2-[4-(1-methyl-1H-indazol-5-yl)phenyl]-7-oxa-1,3-diazaspiro[4.4]non-1-en-4-one] | 63 | ~7410 |
| O=C(C1CC1)N1CC(CN2C(=O)C3(CC3)N=C2c2ccc(-c3ccc4oncc4c3)cc2)C1 [compound 504, 5-[4-(1,2-Benzisoxazol-5-yl)phenyl]-6-{[1-(cyclopropylcarbonyl)azetidin-3-yl]methyl}-4,6-diazaspiro[2.4]hept-4-en-7-one] | 42 | 8510 |
| O=C(N1CC(CN2C(=O)C3(CCOCC3)N=C2c2ccc(-c3ccc4cccnc4c3)cc2)C1)C(F)(F)F [compound 910, 2-(4-(quinolin-7-yl)phenyl)-3-((1-(2,2,2-trifluoroacetyl)azetidin-3-yl)methyl)-8-oxa-1,3-diazaspiro[4.5]dec-1-en-4-one] | 12 | > 10000 |
| N#CC1(C(=O)N2CC[C@@H](CN3C(=O)C4(CCCC4)N=C3c3ccc(-c4ccc5occc5c4)cc3)C2)CC1 [compound 192, 1-{[(3R)-3-({2-[4-(1-Benzofuran-5-yl)phenyl]-4-oxo-1,3-diazaspiro[4.4]non-1-en-3-yl}methyl)pyrrolidin-1-yl]carbonyl}cyclopropancarbonitrile] | 94.3 | 589 |
| CC(C)C(=O)N1CCC2(CC1)N=C(c1ccc(-c3ccc4[nH]ncc4c3)cc1)N(CC1CN(C(=O)C3CC3)C1)C2=O [compound 754, 3-{[1-(Cyclopropylcarbonyl)azetidin-3-yl]methyl}-2-[4-(1H-indazol-5-yl)phenyl]-8-(2-methylpropanoyl)-1,3,8-triazaspiro[4.5]dec-1-en-4-one] | 67 | 2950 |
| O=C(C1CC1)N1CC[C@@H](CN2C(=O)C3(CCCC3)N=C2c2ccc(-c3ccnc4ccccc34)cc2)C1 [compound 22, 3-{[(3R)-1-(Cyclopropylcarbonyl)pyrrolidin-0 3-yl]methyl}-2-(4-quyinolin-4-ylphenyl)-1,3-diazaspiro[4.4]non-1-en-4-one] | 85 | 1070 |
| Cn1ncc2cc(-c3ccc(C4=NC5(CCOC5)C(=O)N4C[C@@H]4CCN(C(=O)N5CCCC5)C4)cc3)ccc21 (stereo partly drawn) [compound 693, 2-[4-(1-Methyl-1H-indazol-5-yl)phenyl]-3-{[(3S)-1-(pyrrolidin-1-ylcarbonyl)pyrrolidin-3-yl]methyl}-7-oxa-1,3-diazaspiro[4.4]non-1-en-4-one] | 48 | 9770 |
| CS(=O)(=O)N1CC(CN2C(=O)C3(CCOCC3)N=C2c2ccc(-c3ccc4occc4c3)cc2)C1 [compound 888, 2-(4-(benzofuran-5-yl)phenyl)-3-((1-(methylsulfonyl)azetidin-3-yl)methyl)-8-oxa-1,3-diazaspiro[4.5]dec-1-en-4-one] | 1 | > 10000 |
| Cc1sc2ccc(-c3ccc(C4=NC5(CC5)C(=O)N4CC4CN(C(=O)C5CC5)C4)cc3F)cc2c1C [compound 434, 6-{[1-(Cyclopropylcarbonyl)azetidin-3-yl]methyl}-5-[4-(2,3-dimethyl-1-benzothiophen-5-yl)-3-fluorophenyl]-4,6-diazaspiro[2.4]hept-4-en-7-one] | 73 | 2040 |
| O=C(C1CC1)N1CC[C@@H](CN2C(=O)C3(CC3)N=C2c2ncc(-c3ccc4occc4c3)cn2)C1 [compound 437, 5-[5-(1-Benzofuran-5-yl)pyrimidin-2-yl]-6-{[(3R)-1-(cyclopropylcarbonyl)pyrrolidin-3-yl]methyl}-4,6-diazaspiro[2.4]hept-4-en-7-one] | 72 | 2750 |
| Cn1ncc2cc(-c3ccc(C4=NC5(CCOCC5)C(=O)N4CC4CN(C(=O)C5CC5)C4)cc3)ccc21 [compound 706, 3-{[1-(Cyclopropylcarbonyl)azetidin-3-yl]methyl}-2-[4-(1-methyl-1H-indazol-5-yl)phenyl]-8-oxa-1,3-diazaspiro[4.5]dec-1-en-4-one] | 65 | ~2340 |
| Cn1ncc2cc(-c3ccc(C4=NC5(CCN(CCO)CC5)C(=O)N4CC4CN(C(=O)C5CC5)C4)cc3)ccc21 [compound 170, 3-{[1-(Cyclopropylcarbonyl)azetidin-3-yl]methyl}-8-(2-hydroxyethyl)-2-[4-(1-methyl-1H-indazol-5-yl)phenyl]-1,3,8-triazaspiro[4.5]dec-1-en-4-one] | 55.6 | 7940 |
| CN(C)CC(=O)N1CCC2(CC1)N=C(c1ccc(-c3ccc4cnccc4c3)cc1)N(C[C@@H]1CCN(C(=O)C3CC3)C1)C2=O [compound 142, 3-{[(3R)-1-(Cyclopropylcarbonyl)pyrrolidin-3-yl]methyl}-8-(N,N-dimethylglycyl)-2-(4-isoquinolin-6-ylphenyl)-1,3,8-triazaspiro[4.5]dec-1-en-4-one] | 119 | 69.2 |
| COC(=O)N1CC(CN2C(=O)C3(CCOC3)N=C2c2ccc(-c3ccc(-c4cnn(C)c4)cc3)cc2)C1 (centres unmarked) [compound 927, methyl 3-((2-(4′-(1-methyl-1H-pyrazol-4-yl)-[1,1′-biphenyl]-4-yl)-4-oxo-7-oxa-1,3-diazaspiro[4.4]non-1-en-3-yl)methyl)azetidine-1-carboxylate] | -2 | > 10000 |
| COC(=O)N1CC2(C1)N=C(c1ccc(-c3ccc4occc4c3)cc1)N(C[C@@H]1CCN(C(=O)C(F)(F)F)C1)C2=O [compound 946, (R)-methyl 6-(4-(benzofuran-5-yl)phenyl)-8-oxo-7-((1-(2,2,2-trifluoroacetyl)pyrrolidin-3-yl)methyl)-2,5,7-triazaspiro[3.4]oct-5-ene-2-carboxylate] | 37 | > 10000 |

From patent US10077261B2, “Imidazolin-5-one derivative useful as FASN inhibitors for the treatment of cancer” (Janssen Pharmaceutica NV, priority 2012, dated 2018)
